Source: patent US11214803B2, “Modulators of YAP1 expression” (Ionis Pharmaceuticals, Inc., priority 2019, dated 2022)
Strand notation (5' to 3'): a small letter for the sugar, then the base; units joined by * are phosphorothioate-linked, units joined directly phosphodiester-linked; [ ] holds rarer units or linkages, { } end groups; capitals alone tell only the bases. k = constrained ethyl (cEt); [5mC] = 5-methylcytosine; d = 2'-deoxy (DNA)

System: Yap1 mRNA
Assay: Antisense inhibition of human Yap1 in A-431 cells by cEt gapmers, single dose (Example 3, RTS36584)
Format: cell-based
Settings: Table 8; A-431 cells, 5,000 cells per well, free uptake, 2,000 nM, approximately 48 hours; RTS36584; normalized to RIBOGREEN; Yap1 mRNA relative to untreated control cells
Summary of the method: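 Single-dose free-uptake screen of 3-10-3 cEt gapmers in A-431 cells at 2,000 nM over about 48 h. Values are % untreated control Yap1 mRNA.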

Row | Substance | YAP1 (% UTC)
1 | 958414 (antisense k[5mC]*kA*kG*dA*dA*dT*dT*d[5mC]*d[5mC]*d[5mC]*dA*dA*dG*k[5mC]*kT*kA) [Compound 958414] | 73 % UTC
2 | 958395 (antisense k[5mC]*kT*kA*dA*d[5mC]*dA*dA*d[5mC]*d[5mC]*dT*dG*dG*dT*kT*kT*kG) [Compound 958395] | 114 % UTC
3 | 958374 (antisense k[5mC]*kA*kG*dA*dG*dG*dT*dG*d[5mC]*dT*dA*dG*d[5mC]*kT*kG*kG) [Compound 958374] | 38 % UTC
4 | 958417 (antisense kA*k[5mC]*kG*dG*dA*dT*dA*dA*dA*dA*dA*dT*dT*kA*k[5mC]*kT) [Compound 958417] | 85 % UTC
5 | 958399 (antisense kG*kA*k[5mC]*d[5mC]*dA*dA*d[5mC]*dT*dA*d[5mC]*dT*dT*dG*kA*kA*kG) [Compound 958399] | 45 % UTC
6 | 958367 (antisense k[5mC]*kT*kA*dG*d[5mC]*dT*dT*dG*dG*dT*dG*dG*d[5mC]*kA*kG*k[5mC]) [Compound 958367] | 105 % UTC

Same assay, conditions: Table 9; A-431 cells, 5,000 cells per well, free uptake, 2,000 nM, approximately 48 hours; RTS36584; normalized to RIBOGREEN; Yap1 mRNA relative to untreated control cells

Row | Substance | YAP1 (% UTC)
7 | 958621 (antisense kA*kA*k[5mC]*dG*dA*dG*dG*dG*dT*d[5mC]*dA*dA*dG*k[5mC]*k[5mC]*kT) [Compound 958621] | 29 % UTC
8 | 958636 (antisense k[5mC]*k[5mC]*kG*d[5mC]*dA*d[5mC]*d[5mC]*dG*d[5mC]*dG*dG*d[5mC]*d[5mC]*k[5mC]*kG*kG) [Compound 958636] | 126 % UTC
9 | 958606 (antisense kT*k[5mC]*k[5mC]*dA*d[5mC]*d[5mC]*dT*dG*dA*dG*d[5mC]*dA*d[5mC]*kT*k[5mC]*kA) [Compound 958606] | 31 % UTC
10 | 958566 (kA*k[5mC]*k[5mC]*dT*dA*dT*dG*dA*dA*d[5mC]*dT*dA*dT*kT*kA*kT; antisense) [Compound 958566] | 18 % UTC

Same assay, conditions: Table 10; A-431 cells, 5,000 cells per well, free uptake, 2,000 nM oligonucleotide, approx. 48 hours; primer probe set RTS36584; Yap1 mRNA normalized to RIBOGREEN, percent of untreated control

Row | Substance | YAP1 (% UTC)
11 | 958557 (k[5mC]*kA*k[5mC]*dA*dA*d[5mC]*d[5mC]*dA*dA*d[5mC]*dT*dA*dT*kT*kA*k[5mC]; antisense) [Compound 958557] | 10 % UTC
12 | 958767 (antisense kA*k[5mC]*kG*dA*dA*dT*dA*dA*dG*dG*d[5mC]*dA*dT*kT*kA*kG) [Compound 958767] | 6 % UTC
13 | 958462 (antisense kA*k[5mC]*kT*dG*dG*d[5mC]*dT*dA*d[5mC]*dG*d[5mC]*dA*dG*kG*kG*k[5mC]) [Compound 958462] | 46 % UTC

Same assay, conditions: Table 11; A-431 cells, 5,000 cells per well, free uptake, 2,000 nM oligonucleotide, approx. 48 hours; primer probe set RTS36584; Yap1 mRNA normalized to RIBOGREEN, percent of untreated control

Row | Substance | YAP1 (% UTC)
14 | 958668 (kG*kT*kG*dA*dT*d[5mC]*dT*dG*dT*dG*dA*dG*dA*kG*kG*kT; antisense) [Compound 958668] | 2 % UTC
15 | 958523 (kT*kT*k[5mC]*d[5mC]*dA*dA*dT*d[5mC]*dG*dA*dG*dA*d[5mC]*kT*kT*kA; antisense) [Compound 958523] | 3 % UTC
16 | 958733 (antisense kT*kA*kA*dT*dA*dG*dA*d[5mC]*dT*dA*dG*dA*d[5mC]*kT*kT*kA) [Compound 958733] | 67 % UTC
17 | 958473 (antisense kG*kT*k[5mC]*dT*d[5mC]*d[5mC]*dT*dT*dA*dG*dA*dT*d[5mC]*k[5mC]*kT*kT) [Compound 958473] | 5 % UTC
18 | 958623 (antisense kT*kT*kG*dA*dT*dA*dT*dT*d[5mC]*d[5mC]*dG*d[5mC]*dA*kT*kT*kG) [Compound 958623] | 3 % UTC

Same assay, conditions: Table 12; A-431 cells, 5,000 cells per well, free uptake, 2,000 nM modified oligonucleotide, approx. 48 hours; RTS36584; normalized to RIBOGREEN; Yap1 mRNA relative to untreated control cells

Row | Substance | YAP1 (% UTC)
19 | 958684 (kG*k[5mC]*kT*dG*dA*dA*dG*dA*d[5mC]*dG*dG*d[5mC]*d[5mC]*k[5mC]*kT*kT; antisense) [Compound 958684] | 70 % UTC
20 | 958589 (kG*kT*kA*dA*dA*dG*dG*dA*dA*dG*dA*dT*d[5mC]*kT*k[5mC]*k[5mC]; antisense) [Compound 958589] | 4 % UTC
21 | 958599 (kT*kT*k[5mC]*dA*dA*dG*dA*dA*dT*dA*d[5mC]*d[5mC]*d[5mC]*kA*kG*kT; antisense) [Compound 958599] | 5 % UTC
22 | 958649 (kT*kG*k[5mC]*d[5mC]*dA*d[5mC]*dT*dG*dG*dT*dG*dA*dA*kT*kA*k[5mC]; antisense) [Compound 958649] | 36 % UTC
23 | 958619 (antisense kT*kG*kG*dG*dT*d[5mC]*dT*dA*dG*d[5mC]*d[5mC]*dA*dA*kG*kA*kG) [Compound 958619] | 71 % UTC

Same assay, conditions: Table 13; A-431 cells, 5,000 cells per well, free uptake, 2,000 nM modified oligonucleotide, approx. 48 hours; RTS36584; normalized to RIBOGREEN; Yap1 mRNA relative to untreated control cells

Row | Substance | YAP1 (% UTC)
24 | 958675 (kT*k[5mC]*k[5mC]*d[5mC]*dT*dA*dT*d[5mC]*dA*dG*d[5mC]*dT*dG*kG*kG*k[5mC]; antisense) [Compound 958675] | 112 % UTC

Same assay, conditions: Table 26; Yap1 mRNA by 3-10-3 cEt gapmers targeting SEQ ID NO.: 1, and 2; percent of untreated control

Row | Substance | YAP1 (% UTC)
25 | 1075276 (kG*kA*k[5mC]*d[5mC]*dA*dA*dT*dA*d[5mC]*dA*dA*dT*dG*kG*kG*kA; antisense) [compound 1075276] | 78 % UTC
26 | 1075500 (kT*kA*kA*dA*dT*dT*dA*dA*dG*d[5mC]*d[5mC]*dA*dA*k[5mC]*kA*k[5mC]; antisense) [compound 1075500] | 26 % UTC
27 | 1075692 (kT*kA*kA*dG*dA*dA*d[5mC]*dA*d[5mC]*d[5mC]*dA*dT*dA*kG*k[5mC]*kA; antisense) [compound 1075692] | 11 % UTC
28 | 1074380 (kG*kT*k[5mC]*dT*dG*dG*dG*dA*dA*dA*d[5mC]*dG*dG*kT*kT*k[5mC]; antisense) [compound 1074380] | 11 % UTC

Same assay, conditions: Table 27; Yap1 mRNA by 3-10-3 cEt gapmers targeting SEQ ID NO.: 1, and 2; percent of untreated control

Row | Substance | YAP1 (% UTC)
29 | 1075981 (kA*kA*kG*d[5mC]*dA*dA*dT*dA*dT*d[5mC]*d[5mC]*dT*dA*k[5mC]*kA*k[5mC]; antisense) [compound 1075981] | 40 % UTC
30 | 1075853 (kG*kA*kG*d[5mC]*dG*dA*dT*dA*dA*dG*d[5mC]*dT*dG*kT*kA*kT; antisense) [compound 1075853] | 72 % UTC

Same assay, conditions: Table 28; Yap1 mRNA as percent of untreated control; 3-10-3 cEt gapmers targeting SEQ ID NO.: 1, and 2

Row | Substance | YAP1 (% UTC)
31 | 1074350 (antisense kT*kA*kG*dT*d[5mC]*d[5mC]*dA*d[5mC]*dT*dG*dT*d[5mC]*dT*kG*kT*kA) [compound 1074350] | 14 % UTC
32 | 1074190 (antisense k[5mC]*kG*kG*d[5mC]*dG*dG*dG*d[5mC]*d[5mC]*d[5mC]*dT*dG*d[5mC]*k[5mC]*k[5mC]*k[5mC]) [compound 1074190] | 114 % UTC
33 | 1075150 (kA*kG*k[5mC]*dG*dG*dA*dA*dA*dA*dA*dA*d[5mC]*dA*k[5mC]*k[5mC]*kT; antisense) [compound 1075150] | 35 % UTC

Same assay, conditions: Table 29; Yap1 mRNA as percent of untreated control; 3-10-3 cEt gapmers targeting SEQ ID NO.: 1, and 2

Row | Substance | YAP1 (% UTC)
34 | 1075375 (antisense k[5mC]*kT*kA*dA*dA*dT*dA*dT*d[5mC]*dA*dA*d[5mC]*dT*k[5mC]*k[5mC]*k[5mC]) [compound 1075375] | 35 % UTC
35 | 1075215 (kA*kA*kA*d[5mC]*dA*dA*dT*dA*dA*dA*dG*dG*dG*kT*k[5mC]*k[5mC]; antisense) [compound 1075215] | 44 % UTC

Same assay, conditions: Table 34; Yap1 mRNA as percent of untreated control; 3-10-3 cEt gapmers targeting SEQ ID NO: 1 and 2; single dose

Row | Substance | YAP1 (% UTC)
36 | 1074196 (antisense kG*k[5mC]*k[5mC]*d[5mC]*dG*dG*dG*dT*d[5mC]*d[5mC]*dG*dG*dA*k[5mC]*kG*kG) [compound 1074196] | 99 % UTC
37 | 1075828 (kT*kT*kA*dG*dA*dA*dT*dA*dG*dT*dT*d[5mC]*dT*kA*k[5mC]*k[5mC]; antisense) [compound 1075828] | 59 % UTC
38 | 1075796 (kA*kG*kT*dA*dA*dT*dT*dA*dT*dA*dT*dA*d[5mC]*k[5mC]*k[5mC]*kA; antisense) [compound 1075796] | 64 % UTC
39 | 1076116 (kG*kA*kA*dA*dA*dT*dA*dG*d[5mC]*d[5mC]*d[5mC]*dA*dT*kT*kA*kG; antisense) [compound 1076116] | 25 % UTC
40 | 1076020 (k[5mC]*k[5mC]*k[5mC]*d[5mC]*dA*dA*d[5mC]*dA*d[5mC]*dT*dA*dA*dT*kA*kG*kG; antisense) [compound 1076020] | 60 % UTC
41 | 1075412 (antisense kT*k[5mC]*k[5mC]*dA*dA*dA*dA*dA*dG*dG*dG*dT*dA*kA*kG*kG) [compound 1075412] | 48 % UTC
42 | 1075220 (kA*kA*kT*dT*dT*dT*dA*dA*d[5mC]*dT*dG*dT*dG*kA*k[5mC]*k[5mC]; antisense) [compound 1075220] | 24 % UTC
43 | 1074772 (kA*kG*kT*dT*dA*dA*dA*dA*dT*d[5mC]*dT*dT*dA*kT*k[5mC]*k[5mC]; antisense) [compound 1074772] | 80 % UTC
44 | 1076276 (k[5mC]*kT*kT*dT*dA*dG*dG*dA*dG*dT*d[5mC]*dA*dG*kA*kA*k[5mC]; antisense) [compound 1076276] | 59 % UTC

Same assay, conditions: Table 35; Yap1 mRNA as percent of untreated control; 3-10-3 cEt gapmers targeting SEQ ID NO: 1 and 2; single dose

Row | Substance | YAP1 (% UTC)
45 | 1076117 (k[5mC]*kT*kA*dG*dA*dA*dA*dA*dT*dA*dG*d[5mC]*d[5mC]*k[5mC]*kA*kT; antisense) [compound 1076117] | 15 % UTC
46 | 1075573 (antisense kA*kA*kG*dG*dA*dA*d[5mC]*d[5mC]*dT*dT*d[5mC]*dT*dG*kT*kG*kT) [compound 1075573] | 72 % UTC
